Results: patent publication US8177962B2, “Metal corrosion inhibitor and hydrogen chloride formation inhibitor in a crude oil atmospheric distillation unit” (Kurita Water Industries, Ltd., priority 2002, dated 2012)

Columns and labels:
[1] = Base dissociation constant (Kb) calculated from pH meter measurement; assay type: physicochemical; conditions: for Kb value (25° C.): Table 1; for Kb (25° C.) / Kb (170° C.): Table 6
[2] = thermal decomposition at 760° C., GC/MS, FIG. 3
Description: Choline chloride was subjected to thermal decomposition GC/MS analysis. 5989A manufactured by Hewlett Packard was used as the GC/MS analyzer, and DB624 manufactured by J&W (0.32 mm×30 m, membrane thickness of 1.8 μm) was used as the column. The temperature for thermal decomposition of choline chloride was 760° C.

| Compound | Kb value (25° C.) [1] | Kb (25° C.) [1] | Kb (170° C.) [1] | thermal decomposition products [2] |
| --- | --- | --- | --- | --- |
| C1COCCN1 [Morpholine] | 2.09 × 10^−6 |  |  |  |
| NCCO [Monoethanolamine] | 3.15 × 10^−5 | 2.60 × 10^−5 | 8.42 × 10^−6 |  |
| Dimethylethanolamine |  | 2.21 × 10^−5 | 3.38 × 10^−5 |  |
| C[N+](C)(C)CCO.[Cl-] [Choline hydrochloride (choline chloride), choline chloride] |  |  |  | produces methyl chloride, trimethylamine and N,N-dimethylaminoethanol by thermal decomposition, but does not produce hydrogen chloride |
| NC1CCCCC1 [Cyclohexylamine] | 3.39 × 10^−4 |  |  |  |
| C[N+](C)(C)CCO.[OH-] [Choline, (β-hydroxyethyl)trimethylammonium hydroxide] | 3.14 × 10^−3 | 3.14 × 10^−3 | 8.40 × 10^−3 |  |
